Data from patent publication US6037447A, “Glycopeptide compounds” (priority 1998, dated 2000).

Tests used:
[1] = test system: Staphylococcus haemolyticus 105; experiment: Standard broth micro-dilution MIC, Staphylococcus haemolyticus 105; assay type: cell-based
Protocol: (§1) The minimal inhibitory concentrations (MICs) were determined using a standard broth micro-dilution assay.

[2] = test system: vancomycin-sensitive enterococci; experiment: In Vitro Activity Against Enterococci, vancomycin-sensitive strains; assay type: cell-based, Enterococcus faecium and Enterococcus faecalis; settings: representative vancomycin-sensitive enterococci (Enterococcus faecium and Enterococcus faecalis)
Protocol: as §1

[3] = test system: Enterococcus faecalis 276; experiment: Standard broth micro-dilution MIC, Enterococcus faecalis 276; assay type: cell-based
Protocol: as §1

Enterococcus faecium 180 = experiment: Standard broth micro-dilution MIC, Enterococcus faecium 180; assay type: cell-based
Protocol: as §1

Escherichia coli EC14 = experiment: Standard broth micro-dilution MIC, Escherichia coli EC14; assay type: cell-based
Protocol: as §1

[4] = test system: Staphylococcus aureus SA1199A; experiment: Standard broth micro-dilution MIC, Staphylococcus aureus SA1199A; assay type: cell-based
Protocol: as §1

[5] = test system: Staphylococcus aureus SA1199; experiment: Standard broth micro-dilution MIC, Staphylococcus aureus SA1199; assay type: cell-based
Protocol: as §1

[6] = test system: vancomycin-resistant enterococci; experiment: In Vitro Activity Against Enterococci, vancomycin-resistant strains; assay type: cell-based; settings: representative vancomycin-resistant enterococci (Enterococcus faecium and Enterococcus faecalis)
Protocol: as §1

[7] = test system: Enterococcus gallinarum 245; experiment: Standard broth micro-dilution MIC, Enterococcus gallinarum 245; assay type: cell-based
Protocol: as §1

[8] = test system: Staphylococcus haemolyticus 415; experiment: Standard broth micro-dilution MIC, Staphylococcus haemolyticus 415; assay type: cell-based
Protocol: as §1

[9] = test system: Staphylococcus aureus 447; experiment: Standard broth micro-dilution MIC, Staphylococcus aureus 447; assay type: cell-based
Protocol: as §1

[10] = test system: Staphylococcus aureus 489; experiment: Standard broth micro-dilution MIC, Staphylococcus aureus 489; assay type: cell-based
Protocol: as §1

[11] = test system: Staphylococcus aureus X400; experiment: Standard broth micro-dilution MIC, Staphylococcus aureus X400; assay type: cell-based
Protocol: as §1

[12] = test system: Enterococcus faecium 180-1; experiment: Standard broth micro-dilution MIC, Enterococcus faecium 180-1; assay type: cell-based
Protocol: as §1

[13] = test system: Staphylococcus aureus 491; experiment: Standard broth micro-dilution MIC, Staphylococcus aureus 491; assay type: cell-based
Protocol: as §1

[14] = test system: Staphylococcus epidermidis 270; experiment: Standard broth micro-dilution MIC, Staphylococcus epidermidis 270; assay type: cell-based
Protocol: as §1

[15] = test system: Streptococcus pyogenes C203; experiment: Standard broth micro-dilution MIC, Streptococcus pyogenes C203; assay type: cell-based
Protocol: as §1

[16] = test system: Enterococcus faecalis 2041; experiment: Standard broth micro-dilution MIC, Enterococcus faecalis 2041; assay type: cell-based
Protocol: as §1

[17] = test system: Haemophilus influenzae RD; experiment: Standard broth micro-dilution MIC, Haemophilus influenzae RD; assay type: cell-based
Protocol: as §1

[18] = test system: Staphylococcus aureus SA119913; experiment: Standard broth micro-dilution MIC, Staphylococcus aureus SA119913; assay type: cell-based
Protocol: as §1

[19] = test system: Streptococcus pneumoniae P1; experiment: Standard broth micro-dilution MIC, Streptococcus pneumoniae P1; assay type: cell-based
Protocol: as §1

[20] = test system: Staphylococcus aureus S13E; assay type: cell-based
Protocol: as §1

[21] = test system: Staphylococcus aureus X778; experiment: Standard broth micro-dilution MIC, Staphylococcus aureus X778; assay type: cell-based
Protocol: as §1

[22] = test system: Staphylococcus aureus 446; experiment: Standard broth micro-dilution MIC, Staphylococcus aureus 446; assay type: cell-based
Protocol: as §1

Substance	MIC [1] [µg/mL]	mean geometric MIC, Vancomycin Sensitive Strains [2] [µg/mL]	MIC [3] [µg/mL]	MIC (Enterococcus faecium 180) [µg/mL]	MIC (Escherichia coli EC14) [µg/mL]	MIC [4] [µg/mL]	MIC [5] [µg/mL]	mean geometric MIC, Vancomycin Resistant Strains [6] [µg/mL]	MIC [7] [µg/mL]	MIC [8] [µg/mL]	MIC [9] [µg/mL]	MIC [10] [µg/mL]	MIC [11] [µg/mL]	MIC [12] [µg/mL]	MIC [13] [µg/mL]	MIC [14] [µg/mL]	MIC [15] [µg/mL]	MIC [16] [µg/mL]	MIC [17] [µg/mL]	MIC [18] [µg/mL]	also measured
1,3-propanediyl-bis-[(oxy-4,1-phenylene)-methylene]-bis-[A82846B] [Compound 14]	4	1.0	0.5	0.25	> 64	0.125	4	> 64	0.06	16	16	1	2	≤ 0.06	0.25	8	0.06	0.25	> 64	2	MIC [19]: 0.06 µg/mL; MIC [20]: 2 µg/mL; MIC [21]: 1 µg/mL; MIC [22]: 4 µg/mL
N^4 -(4-(2-(2-(2-(p-formyl-phenoxy)ethoxy)ethoxy)ethoxy)benzyl)A82846B [Compound 43]	1	4.6	1	8	> 64	0.5	2	> 128	0.5	8	4	1	2	0.5	0.5	4	0.06	1	> 64	4	MIC [19]: 0.06 µg/mL; MIC [20]: 2 µg/mL; MIC [21]: 2 µg/mL; MIC [22]: 2 µg/mL
N^4 -(4-(2-(4-(2-(p-formyl-phenoxy)ethoxycarbonyl)benzoyl-oxy)ethoxy)benzyl)vancomycin [Compound 44]	0.25	0.66	≤ 0.06	4	> 64	≤ 0.06	≤ 0.06	76	0.25	2	0.125	0.125	≤ 0.06	≤ 0.06	≤ 0.06	0.25	0.06	≤ 0.06	> 64	≤ 0.06	MIC [19]: 0.06 µg/mL; MIC [20]: ≤ 0.06 µg/mL; MIC [21]: ≤ 0.06 µg/mL; MIC [22]: 0.125 µg/mL
N^4 -(4-(8-(p-formylphenoxy)-n-octyloxy)benzyl)A82846B [Compound 47]	8	1.0	8	0.5	> 64	0.5	16	2.8	16	16	8	4	8	1	16	4	≤ 0.06	2	> 64	8	MIC [19]: ≤ 0.06 µg/mL; MIC [20]: 16 µg/mL; MIC [21]: 8 µg/mL; MIC [22]: 8 µg/mL
N^4 -(4-(12-(p-formylphenoxy)-n-dodecyloxy)benzyl)A82846B [Compound 48]	> 64	5.2	32	64	> 64	16	32	8.0	> 64	> 64	> 64	32	32	8	32	> 64	2	8	> 64	32	MIC [19]: 4 µg/mL; MIC [20]: 32 µg/mL; MIC [21]: 32 µg/mL; MIC [22]: > 64 µg/mL
